Test results reported in patent US20260109732A1, “LIPID AMINES” (ModernaTX, Inc., priority 2021, published 2026).
Where a name gives a salt, the structure may show the parent alone.

How the values were obtained:
[1] = Diameter and PDI from DLS measurements of mRNA nanoparticles with lipid amines; type: physicochemical; conditions: CFTR mRNA nanoparticle with lipid amine
Experimental: (§1) Lipids are dissolved in ethanol at a concentration of 24 mg/mL and molar ratios of 49.0:11.2:39.3:0.5 (IL1:DSPC:cholesterol:PEG-DMG-2K) and mixed with the acidification buffer (45 mM acetate buffer at pH 4). The lipid solution and acidification buffer are mixed using a multi-inlet vortex mixer at a 3:7 volumetric ratio of lipid:buffer for mixer 1 and mixer 2 and a 1:3 volumetric ratio of lipid:buffer (25% ethanol) for mixer 3. After a 5 second residence time, the resulting nanoparticles are mixed with 55 mM sodium acetate at pH 5.6 at a volumetric ratio of 5:7 of nanoparticle:buffer. See Table 2a for mixing parameters. The resulting dilute nanoparticles are then buffer exchanged and concentrated using tangential flow filtration (TFF) into a final buffer containing 5 mM sodium acetate pH 5.0. Then a 70% sucrose solution in 5 mM acetate buffer at pH 5 is subsequently added.
(§2) The resulting nanoparticles at a lipid concentration of 7.33 mg/mL in 5 mM acetate (pH 5) and 75 g/L sucrose are mixed with mRNA (luciferease or CFTR) at a concentration of 0.625 mg/mL in 42.5 mM sodium acetate pH 5.0, with N:P of 4.93. The nanoparticle solution and nanoparticles are mixed using a multi-inlet vortex mixer at a 3:2 volumetric ratio of nanoparticle:mRNA. Once loaded with mRNA, these intermediate nanoparticles undergo a 300 second residence time prior addition of neutralization buffer containing 120 mM TRIS pH 8.12 at a volumetric ratio of 5:1 of nanoparticle:buffer.
(§3) For HeLa studies evaluating luciferase protein expression, PEG-DMG-2K dissolved in a 20 mM TRIS buffer (pH 7.5) is added to the neutralized intermediate nanoparticle solution at a ratio of 1:6, bringing the solution to the final molar ratios of IL1:DSPC:cholesterol:PEG-DMG-2K of 48.5:11.1:38.9:1.5%. This nanoparticle formulation is then modified with lipid amines. In a typical example, nanoparticle formulation at a concentration of 0.18 mg/mL mRNA and a 0.56 mL volume is modified with lipid amine SA50 (467.2 nmol) prepared in buffer containing 20 mM TRIS, 14.3 mM sodium acetate, 32 g/L sucrose and 140 mM NaCl-pH 7.5 at a volumetric ratio of 1:1 of nanoparticle:buffer.
(§4) For HeLa studies evaluating CFTR protein expression, the intermediate nanoparticle formulation (1 mL, 0.415 mg mRNA) is mixed with a buffer containing 20 mM TRIS (pH 7.5), 0.9 mg/mL PEG-DMG-2K and lipid amine SA50 (647.1 nmol) at a volumetric ratio of 6:1 of nanoparticle:buffer. The resulting nanoparticle suspension undergoes concentration using a centrifugal filtration device (100 kDa molecular weight cut-off) and is diluted in running buffer (20 mM TRIS, 14.3 mM sodium acetate, and 32 g/L sucrose, pH 7.5) with a 300 mM NaCl solution to a final buffer matrix containing 70 mM NaCl.
(§5) Both resulting nanoparticle suspensions are filtered through a 0.8/0.2 μm capsule filter and filled into glass vials at an mRNA strength of about 0.1-1 mg/mLBliophysical data (Diameter and PDI from DLS measurements and Encapsualtion using Ribogreen assay) for both luciferase and CFTR mRNA nanoparticles with lipid amines is shown in Tables 2c and d, respectively.

HeLa cells = assay: CFTR Protein Expression Assay in HeLa Cells; type: cell-based, Human; conditions: LNPs encapsulating CFTR mRNA, N=4 wells; 5 h serum-free then 24 h; immunofluorescence vs PBS control
Experimental: as §4
Lipid nanoparticle compositions were prepared in a manner analogous to that in example 2. To evaluate LNP cellular uptake and protein expression In Vitro, HeLa cells from ATCC.org (ATCC CCL-2) are used. The cells are cultured in complete Minimum Essential Medium (MVEM) and are plated in 96 well Cell Carrier Ultra plate with PDL coated surface (PerkinElmer) prior to running an experiment.
Buffer control (PBS) and LNPs encapsulating cystic fibrosis transmembrane conductance regulator (CFTR) mRNA were dosed with MEM media in the absence of serum (N=4 replicate wells). LNP transfected cells were incubated for 5 h, followed by media removal and supplementation with complete MEM media. Cells were further incubated in complete MEM media overnight (24 h).
Following 24 hr incubation, the cells were fixed with PFA and processed for immunofluorescence (IF) using an anti-CFTR rabbit monoclonal antibody. Briefly, the cells were permeabilized with 0.5% TX-100 for 10 min, blocked with 3% bovine serum albumin (BSA)+PBST for 1 hr at room temperature, and incubated with primary anti-CFTR monoclonal antibody overnight at 4° C. Following primary antibody incubation, the cells were incubated with Alexa 488 conjugated secondary antibody for 30 mi and stained with DAPI and HCS CellMask Blue stain. Between different incubation steps the cells were either washed with PBS or PBST. Cells were imaged using Opera Phoenix spinning disk confocal microscope (PerkinElmer), and CFTR protein expression was detected using the 488 nm channel. The image analysis was performed in Harmony 4.9, with main analysis output being CFTR intensity per cell. The results shown in Table 3b show fold-change in CFTR signal intensity per cell compared to buffer (PBS) control (NA=not available).

[2] = Encapsulation of mRNA nanoparticles with lipid amines using Ribogreen assay; type: physicochemical; conditions: CFTR mRNA nanoparticle with lipid amine
Experimental: as §1, §2, §3, §4, §5

Row | Structure (SMILES) | Diameter (nm) [1] [nm] | PDI [1] | Average fold-change in CFTR signal intensity per cell compared to buffer control ± standard deviation (HeLa cells) [fold-change] | % Encapsulation (Ribogreen) [2] [%]
1 | CC(C)CCC[C@@H](C)[C@H]1CC[C@H]2[C@@H]3CC=C4C[C@@H](OC(=O)CN(CCCN)CCCCNCCCN)CC[C@]4(C)[C@H]3CC[C@]12C (stereo in doubt) [SA65, ((3S,8S,9S,10R,13R,14S,17R)-10,13-dimethyl-17-((R)-6-methylheptan-2-yl)-2,3,4,7,8,9,10,11,12,13,14,15,16,17-tetradecahydro-1H-cyclopenta[a]phenanthren-3-yl N-(3-aminopropyl)-N-(4-((3-aminopropyl)amino)butyl)glycinatetetrahydrochloride] | 78.0 | 0.14 | 5.9 ± 0.5 | 99.6
2 | CC(C)CCC[C@@H](C)[C@H]1CC[C@H]2[C@@H]3CC=C4C[C@@H](OC(=O)CC(=O)N(CCCN(C)C)CCCN(C)C)CC[C@]4(C)[C@H]3CC[C@]12C.Cl.Cl [SA50, (3S,8S,9S,10R,13R,14S,17R)-10,13-Dimethyl-17-((R)-6-methylheptan-2-yl)-2,3,4,7,8,9,10,11,12,13,14,15,16,17-tetradecahydro-1H-cyclopenta[a]phenanthren-3-yl 3-(bis(3-(dimethylamino)propyl)amino)-3-oxopropanoate dihydrochloride] | 77.1 | 0.11 | 7.1 ± 0.4 | 99.3
3 | CC(C)CCC[C@@H](C)[C@H]1CC[C@H]2[C@@H]3CC=C4C[C@@H](OC(=O)CCCC(=O)N(CCCN(C)C)CCCN(C)C)CC[C@]4(C)[C@H]3CC[C@]12C.Cl.Cl [SA51, (3S,8S,9S,10R,13R,14S,17R)-10,13-Dimethyl-17-((R)-6-methylheptan-2-yl)-2,3,4,7,8,9,10,11,12,13,14,15,16,17-tetradecahydro-1H-cyclopenta[a]phenanthren-3-yl 5-(bis(3-(dimethylamino)propyl)amino)-5-oxopentanoate dihydrochloride] | 74.3 | 0.15 | 6.5 ± 0.4 | 98.4
4 | CC(C)CCC[C@@H](C)[C@H]1CC[C@H]2[C@@H]3CC=C4C[C@@H](OC(=O)CCCC(=O)N(CCCN)CCCCNCCCN)CC[C@]4(C)[C@H]3CC[C@]12C.Cl.Cl.Cl [SA58, (3S,8S,9S,10R,13R,14S,17R)-10,13-Dimethyl-17-((R)-6-methylheptan-2-yl)-2,3,4,7,8,9,10,11,12,13,14,15,16,17-tetradecahydro-1H-cyclopenta[a]phenanthren-3-yl 5-((3-aminopropyl)(4-((3-aminopropyl)amino)butyl)amino)-5-oxopentanoate trihydrochloride] | 71.6 | 0.10 | 4.5 ± 0.3 | 99.6
5 | CC(C)CCC[C@@H](C)[C@H]1CC[C@H]2[C@@H]3CC=C4C[C@@H](OC(=O)N(CCCCCCCCN(C)C)CCCN(C)C)CC[C@]4(C)[C@H]3CC[C@]12C [SA64, (3S,8S,9S,10R,13R,14S,17R)-10,13-dimethyl-17-((R)-6-methylheptan-2-yl)-2,3,4,7,8,9,10,11,12,13,14,15,16,17-tetradecahydro-1H-cyclopenta[a]phenanthren-3-yl (8-(dimethylamino)octyl)(3-(dimethylamino)propyl)carbamate] | 67.8 | 0.09 | 9.1 ± 0.6 | 99.1
6 | CC(C)CCC[C@@H](C)[C@H]1CC[C@H]2[C@@H]3CC=C4C[C@@H](OC(=O)N(CCCCOCCCN(C)C)CCCN(C)C)CC[C@]4(C)[C@H]3CC[C@]12C [SA67, (3S,8S,9S,10R,13R,14S,17R)-10,13-dimethyl-17-((R)-6-methylheptan-2-yl)-2,3,4,7,8,9,10,11,12,13,14,15,16,17-tetradecahydro-1H-cyclopenta[a]phenanthren-3-yl (4-(3-(dimethylamino)propoxy)butyl)(3-(dimethylamino)propyl)carbamate] | 72.8 | 0.10 | 7.7 ± 0.7 | 99.2
7 | CC(C)CCC[C@@H](C)[C@H]1CC[C@H]2[C@@H]3CC=C4C[C@@H](OC(=O)N(CCCCN(C)CCCN(C)C)CCCN(C)C)CC[C@]4(C)[C@H]3CC[C@]12C [SA68, (3S,8S,9S,10R,13R,14S,17R)-10,13-dimethyl-17-((R)-6-methylheptan-2-yl)-2,3,4,7,8,9,10,11,12,13,14,15,16,17-tetradecahydro-1H-cyclopenta[a]phenanthren-3-yl (3-(dimethylamino)propyl)(4-((3-(dimethylamino)propyl)(methyl)amino)butyl)carbamate] | 74.6 | 0.12 | 8.9 ± 0.4 | 99.2
8 | CC(C)CCC[C@@H](C)[C@H]1CC[C@H]2[C@@H]3CC=C4C[C@@H](OC(=O)[C@H](C)N(CCCN)CCCCNCCCN)CC[C@]4(C)[C@H]3CC[C@]12C [SA73, (3S,8S,9S,10R,13R,14S,17R)-10,13-Dimethyl-17-((R)-6-methylheptan-2-yl)-2,3,4,7,8,9,10,11,12,13,14,15,16,17-tetradecahydro-1H-cyclopenta[a]phenanthren-3-yl N-(3-aminopropyl)-N-(4-((3-aminopropyl)amino)butyl)alaninate trihydrochloride] | 92.8 | 0.16 | 9.4 ± 0.6 | 100
9 | CC(C)CCC[C@@H](C)[C@H]1CC[C@H]2[C@@H]3CC=C4C[C@@H](OC(=O)CCCC(=O)N(CCCCNCCC(C)(C)N)CCC(C)(C)N)CC[C@]4(C)[C@H]3CC[C@]12C [SA121, (3S,8S,9S,10R,13R,14S,17R)-10,13-dimethyl-17-((R)-6-methylheptan-2-yl)-2,3,4,7,8,9,10,11,12,13,14,15,16,17-tetradecahydro-1H-cyclopenta[a]phenanthren-3-yl 5-((3-amino-3-methylbutyl)(4-((3-amino-3-methylbutyl)amino)butyl)amino)-5-oxopentanoate trihydrochloride] | 79.2 | 0.14 | 16.2 ± 1.8 | 97.4
